Test results from patent US9284303B2, “Benzimidazole cannabinoid agonists bearing a substituted heterocyclic group” (priority 2006, dated 2016).
Structures can show the parent of a compound that is named as a salt. Where two headings read alike, the source gives them in different places.

Legend:
[1] = target: T1, human CB2 (hCB2) receptor (Homo sapiens, UniProt P34972); assay: Inhibition of forskolin-activated cAMP production upon activation of hCB2 (HTRF), CHO-K1 cells; format: cell-based; conditions: for ratio CB2 agonism over CB1 agonism: Table C-1, selectivity hCB2 over hCB1; for EC50: forskolin-activated cAMP, pEC50=-log(EC50)
T1 construct: expressed in transfected cells; host or cells: CHO-K1
T1 sequence (P34972 whole entry): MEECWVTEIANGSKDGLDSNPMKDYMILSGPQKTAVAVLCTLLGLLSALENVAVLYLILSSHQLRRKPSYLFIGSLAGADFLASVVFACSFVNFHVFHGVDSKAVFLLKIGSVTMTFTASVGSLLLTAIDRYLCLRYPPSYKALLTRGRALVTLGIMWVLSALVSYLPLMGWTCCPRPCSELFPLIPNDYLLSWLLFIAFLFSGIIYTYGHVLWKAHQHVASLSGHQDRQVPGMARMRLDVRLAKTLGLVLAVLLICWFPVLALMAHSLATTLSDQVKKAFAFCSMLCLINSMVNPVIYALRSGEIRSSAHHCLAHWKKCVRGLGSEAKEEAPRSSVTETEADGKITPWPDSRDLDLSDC
Experimental: (§1) Functional activity of the test compounds was assessed by measuring their potency to inhibit forskolin-activated cAMP production upon activation of the human CB1 (hCB1) or human CB2 (hCB2) receptor through homogenous time resolved fluorescence (HTRF) assays.
(§2) Before the experiments, medium was removed, cells were washed with PBS/EDTA (140 mM NaCl, 1 mM Naz-EDTA, 8 mM Na2HPO4.2H2O, 8.5 mM KH2PO4, 2.7 mM KCl, 21 mM glucose), resuspended in stimulation buffer (HBSS 1x, IBMX 1 mM, Hepes 5 mM, MgCl2 10 mM, BSA 0.1%, pH 7.4). Cells were diluted to a concentration of 8.10^5 cell/ml for hCB1 experiments and 10^6 cells/ml for hCB2 experiments. Assays were performed using the cAMP Dynamic HTRF kit (CIS bio international, France) according to the recommendations of the manufacturer.
Then, 20 μl of the diluted hCB2-CHO-K1 cells was added (20,000 cells/well). After 30 minutes incubation in dark at room temperature, 10 μl cAMP-XL665 and 10 μl anti-cAMP cryptate (both at a final dilution of 1/100) was added to the cells.

[2] = target: T2, human CB1 (hCB1) receptor (Homo sapiens, UniProt P21554); assay: Inhibition of forskolin-activated cAMP production upon activation of hCB1 (HTRF), CHO-K1 cells; format: cell-based
T2 construct: expressed in transfected cells; host or cells: CHO-K1
T2 sequence (P21554 whole entry): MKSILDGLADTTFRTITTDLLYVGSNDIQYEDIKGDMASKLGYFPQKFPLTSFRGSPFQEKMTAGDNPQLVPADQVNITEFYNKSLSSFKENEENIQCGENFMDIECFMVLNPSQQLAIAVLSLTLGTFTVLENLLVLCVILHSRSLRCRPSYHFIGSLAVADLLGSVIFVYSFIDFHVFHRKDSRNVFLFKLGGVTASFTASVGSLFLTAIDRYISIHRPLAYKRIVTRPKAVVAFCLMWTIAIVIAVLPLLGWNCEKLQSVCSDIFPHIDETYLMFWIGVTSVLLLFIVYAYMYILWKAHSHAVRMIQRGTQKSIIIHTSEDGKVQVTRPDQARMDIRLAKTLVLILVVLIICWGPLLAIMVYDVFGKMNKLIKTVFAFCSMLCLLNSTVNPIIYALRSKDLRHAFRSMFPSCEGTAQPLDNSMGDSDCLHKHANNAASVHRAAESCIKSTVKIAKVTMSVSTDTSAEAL
Experimental: as §1
as §2, with “CHO-K1 cells stably transfected with either hCB1 or hCB2 were grown up to 80-90% confluence in T175 Falcon flasks in DMEM/NUT MIX F-12 culture medium complemented with 2% Solution A (5.10^6 IU/l penicillin G, 5 g/l streptomycin sulphate, 5.5 g/l pyruvate, 14.6 g/l L-glutamine, 1M NaOH) and 10% foetal calf serum. Before” for “Before”
For CB1, each well of a 96 flat bottom black polystyrene assay plate (Costar) was filled with 25 μl stimulation buffer containing 6 μM forskolin and either test compound (in 2% DMSO), 2% DMSO or 2 μM CP55490 (in 2% DMSO). Then, 25 μl of the diluted cells was added (20,000 cells/well). After 30 minutes incubation in dark at room temperature, 25 μl cAMP-XL665 and 25 μl anti-cAMP cryptate (both at a final dilution of 1/80) was added to the cells.
After equilibration of the reaction mixtures for 1 to 24 hours in dark at room temperature, fluorescence was measured at 665 nm and 620 nm using a Discovery microplate fluorescence counter (Perkin Elmer), and the signal ratio of 665 nm/620 nm was calculated. The signal ratios of the test compounds were expressed relative to the signal ratios of the DMSO control (maximal signal ratio, no inhibition of cAMP) and CP55490 or WIN55212-2 for hCB1 and hCB2, respectively (minimal signal ratio, maximal inhibition of cAMP). From the dose response curves generated for each test compound, the dose at which 50% of the maximal inhibition of cAMP level is observed (EC50, expressed in the Tables as pEC50=−log(EC50) values) and the level of inhibition reached with 10 μM of the test compound compared to CP55490 (for hCB1) or WIN55212-2 (for hCB2) was calculated.

[3] = hCB2-CHO-K1 cells, read-out: CB2 pEC50 (converted)
[4] = CB1 pEC50, hCB1-CHO-K1 cells, forskolin-activated cAMP, pEC50=-log(EC50)

| SMILES | melting point [°C] | ratio CB2 agonism over CB1 agonism [1] | EC50 [1, 3] [nM] | EC50 [2, 4] [nM] | EC50 ([1]; CB2 pEC50, hCB2-CHO-K1 cells) [nM] | EC50 [2] [nM] |
| --- | --- | --- | --- | --- | --- | --- |
| CC(=O)N1CCC(Cn2c(C(C)(C)C)nc3cc(S(=O)(=O)c4ccnc(F)c4)ccc32)CC1 | 193.9 | – | – | – | – | – |
| CC(C)(C)c1nc2cc(S(=O)(=O)c3ccnc(F)c3)ccc2n1CCCC(F)(F)F | 138.9 | – | – | – | – | – |
| CC(C)(C)c1nc2cc(S(=O)(=O)c3ncc(C#N)s3)ccc2n1CCCC(F)(F)F | 122 | – | – | – | – | – |
| CC(C)(C)c1nc2cc(S(=O)(=O)c3ccnc(O)c3)ccc2n1CCCC(F)(F)F | 277.5 | – | – | – | – | – |
| CCOc1cc(S(=O)(=O)c2ccc3c(c2)nc(C(C)(C)C)n3CCCC(F)(F)F)ccn1 | 137.7 | – | – | – | – | – |
| CC(C)(C)c1nc2cc(S(=O)(=O)c3ccc(C#N)s3)ccc2n1CC1CCOCC1 | 156 | – | – | – | – | – |
| CC(O)c1ccc(S(=O)(=O)c2ccc3c(c2)nc(C(C)(C)C)n3CC2CCOCC2)s1 (stereo not drawn) | 192 | – | – | – | – | – |
| CC(C)(C)c1nc2cc(S(=O)(=O)c3ccc(S(N)(=O)=O)s3)ccc2n1CC1CCOCC1 | 259 | – | – | – | – | – |
| CC(C)(C)c1nc2cc(S(=O)(=O)c3ccnc(F)c3)ccc2n1CC1CCC1 (as salt: HCl) (hydrate or solvate) [Co. No. 136] | 184.3 | – | – | – | – | – |
| CC(C)(C)c1nc2cc(S(=O)(=O)c3ccc(S(N)(=O)=O)s3)ccc2n1CC1CCOCC1 (as salt: HCl) [Co. No. 47] | 255 to 260 | – | – | – | – | – |
| CC(C)(C)c1nc2cc(S(=O)(=O)c3ccc(S(C)(=O)=O)s3)ccc2n1CC1CCOCC1 (as salt: HCl) [Co. No. 58] | 224 | – | – | – | – | – |
| CC(C)(C)c1nc2cc(S(=O)(=O)c3ccc(C(=O)N4CCCC4)o3)ccc2n1CC1CCOCC1 (as salt: HCl) [Co. No. 74] | 108.5 | – | – | – | – | – |
| CC(C)(C)c1nc2cc(S(=O)(=O)c3ccnc(C#N)c3)ccc2n1CC1CCOCC1 (as salt: methanesulfonate) [Co. No. 93] | 215.7 | – | – | – | – | – |
| CC(C)(C)c1nc2cc(S(=O)(=O)c3cccc(C(F)(F)F)n3)ccc2n1CC1CCOCC1 [Co. No. 110] | – | 1905 | 0.55 | 1050 | – | – |
| COc1ncc(S(=O)(=O)c2ccc3c(c2)nc(C(C)(C)C)n3CC2CCOCC2)cn1 [Co. No. 111] | – | 372 | 1.15 | 427 | – | – |
| CC(C)(C)c1nc2cc(S(=O)(=O)c3ccnc(F)c3)ccc2n1CC1CCCCO1 (stereo not drawn) [Co. No. 113] | – | 302 | 2.63 | 794 | – | – |
| COc1c[n+]([O-])ccc1S(=O)(=O)c1ccc2c(c1)nc(C(C)(C)C)n2CC1CCOCC1 [Co. No. 115] | – | – | 3.72 | 3630 | – | – |
| CC(C)(C)c1nc2cc(S(=O)(=O)c3ccc(CN)nc3)ccc2n1CC1CCOCC1 [Co. No. 116] | – | 966 | 5.89 | 5750 | – | – |
| CC(C)(C)c1nc2cc(S(=O)(=O)c3ccnc(C(F)(F)F)c3)ccc2n1CC1CCOCC1 [Co. No. 119] | – | >1413 | 7.08 | > 10000 | – | – |
| COc1cc(S(=O)(=O)c2ccc3c(c2)nc(C(C)(C)C)n3CC2CCC(F)(F)CC2)ccn1 [Co. No. 122] | – | 102 | 0.977 | 100 | – | – |
| CC(C)(C)c1nc2cc(S(=O)(=O)c3ccnc(/C=C\Cl)c3)ccc2n1CC1CCOCC1 [Co. No. 124] | – | >692 | 14.5 | > 10000 | – | – |

| SMILES | melting point [°C] | ratio CB2 agonism over CB1 agonism [1] | EC50 [1, 3] [nM] | EC50 [2, 4] [nM] | EC50 ([1]; CB2 pEC50, hCB2-CHO-K1 cells) [nM] | EC50 [2] [nM] |
| --- | --- | --- | --- | --- | --- | --- |
| CC(C)(C)c1nc2cc(S(=O)(=O)c3ccnc(/C=C/Cl)c3)ccc2n1CC1CCOCC1 [Co. No. 125] | – | >3981 | 2.51 | > 10000 | – | – |
| CC(C)(C)OC(=O)NCCCOc1cc(S(=O)(=O)c2ccc3c(c2)nc(C(C)(C)C)n3CC2CCOCC2)ccn1 [Co. No. 130] | – | >4315 | 2.29 | > 10000 | – | – |
| CC(C)(C)c1nc2cc(S(=O)(=O)c3ccnc(OCCCN)c3)ccc2n1CC1CCOCC1 [Co. No. 131] | – | >631 | 15.8 | > 10000 | – | – |
| CC(=O)NCCCOc1cc(S(=O)(=O)c2ccc3c(c2)nc(C(C)(C)C)n3CC2CCOCC2)ccn1 [Co. No. 132] | – | >7079 | 1.41 | > 10000 | – | – |
| CC(C)(C)c1nc2cc(S(=O)(=O)c3ccnc(OCCCN4CCOCC4)c3)ccc2n1CC1CCOCC1 [Co. No. 135] | – | >4571 | 2.19 | > 10000 | – | – |
| CC(C)(C)c1nc2cc(S(=O)(=O)c3ccnc(F)c3)ccc2n1CC1CCC1 [Co. No. 136] | – | >22734 | 0.437 | > 10000 | – | – |
| Cc1[nH][n+]([O-])cc1[S+]([O-])c1ccc2c(c1)nc(C(C)(C)C)n2CC1CCOCC1 (stereo not drawn) [Co. No. 137] | – | – | 1.12 | 776 | – | – |
| CCCCN(C)c1cc(S(=O)(=O)c2ccc3c(c2)nc(C(C)(C)C)n3CC2CCOCC2)ccn1 [Co. No. 138] | – | 473 | 1.74 | 832 | – | – |
| CC(C)(C)c1nc2cc(S(=O)(=O)c3ccnc(CCCCN)c3)ccc2n1CC1CCOCC1 [Co. No. 139] | – | >759 | 13.2 | > 10000 | – | – |
| CC(=O)NCCCCc1cc(S(=O)(=O)c2ccc3c(c2)nc(C(C)(C)C)n3CC2CCOCC2)ccn1 [Co. No. 141] | – | >1792 | 5.62 | > 10000 | – | – |
| C=Cc1cc(S(=O)(=O)c2ccc3c(c2)nc(C(C)(C)C)n3CC2CCOCC2)ccn1 [Co. No. 142] | – | 1413 | 0.955 | 1350 | – | – |
| CC(=O)N1CCC(Cn2c(C(C)(C)C)nc3cc(S(=O)(=O)c4cc[n+]([O-])cc4)ccc32)CC1 [Co. No. 143] | – | – | 17 | > 10000 | – | – |
| CC(C)(C)c1nc2cc(S(=O)(=O)c3ccnc(F)c3)ccc2n1CC1CCOC(=O)CC1 (stereo not drawn) [Co. No. 145] | – | >3090 | 3.24 | > 10000 | – | – |
| CCCC(C)Cn1c(C(C)(C)C)nc2cc(S(=O)(=O)c3ccnc(F)c3)ccc21 (stereo not drawn) [Co. No. 148] | – | >38905 | 0.257 | > 10000 | – | – |
| CC(C)(C)c1nc2cc(S(=O)(=O)c3ccnc(F)c3)ccc2n1C[C@H]1CC[C@@](C)(O)CC1 [Co. No. 153] | – | >11749 | 0.851 | > 10000 | – | – |
| COCCCc1cc(S(=O)(=O)c2ccc3c(c2)nc(C(C)(C)C)n3CC2CCOCC2)cc[n+]1[O-] [Co. No. 155] | – | – | – | – | 2.51 | > 10000 |
| COc1ccc(CNCCc2cc(S(=O)(=O)c3ccc4c(c3)nc(C(C)(C)C)n4CC3CCOCC3)ccn2)cc1 [Co. No. 157] | – | >2884 | 3.47 | > 10000 | – | – |
| CO[C@H]1CC[C@H](Cn2c(C(C)(C)C)nc3cc(S(=O)(=O)c4ccnc(F)c4)ccc32)CC1 [Co. No. 160] | – | >2344 | 4.27 | > 10000 | – | – |
| COCCCn1cc(S(=O)(=O)c2ccc3c(c2)nc(C(C)(C)C)n3CC2CCOCC2)cn1 [Co. No. 161] | – | 2951 | 1.82 | 5250 | – | – |
| CC(C)(C)c1nc2cc(S(=O)(=O)c3ccnc(F)c3)ccc2n1CCC1OCCO1 [Co. No. 165] | – | >923 | 10.7 | > 10000 | – | – |
